The data set has as its system CCRIS mutagenicity, Ames/micronucleus/aberration tests. Kind of data set: CCRIS mutagenicity studies.
The mark [1] stands for this setting: Test System: AMES SALMONELLA TYPHIMURIUM, Strain/Indicator: TA98, Metabolic Activation: NONE, Method: STANDARD PLATE.
Setting [2] is: Test System: AMES SALMONELLA TYPHIMURIUM, Strain/Indicator: TA98, Metabolic Activation: RAT, LIVER, S-9, AROCLOR 1254, Method: STANDARD PLATE.
Setting [3] is: Test System: AMES SALMONELLA TYPHIMURIUM, Strain/Indicator: TA100, Metabolic Activation: NONE, Method: STANDARD PLATE.
The mark [4] stands for this setting: Test System: AMES SALMONELLA TYPHIMURIUM, Strain/Indicator: TA100, Metabolic Activation: RAT, LIVER, S-9, AROCLOR 1254, Method: STANDARD PLATE.
Setting [5] is: Test System: AMES SALMONELLA TYPHIMURIUM, Strain/Indicator: TA1535, Metabolic Activation: NONE, Method: PREINCUBATION
[6] abbreviates: Test System: AMES SALMONELLA TYPHIMURIUM, Strain/Indicator: TA1537, Metabolic Activation: NONE, Method: PREINCUBATION
[7] abbreviates: Test System: AMES SALMONELLA TYPHIMURIUM, Strain/Indicator: TA98, Metabolic Activation: NONE, Method: PREINCUBATION
The mark [8] stands for this setting: Test System: AMES SALMONELLA TYPHIMURIUM, Strain/Indicator: TA100, Metabolic Activation: NONE, Method: PREINCUBATION

From PubChem BioAssay AID1259407 (Chemical Carcinogenesis Research Information System (CCRIS), 2018) come the findings set out here.

Activity calls are given as the source filed them. How the calls were made is not given here.

For `C=CCNC1=C2C[C@@H](C)C[C@H](OC)[C@H](O)[C@@H](C)/C=C(\C)[C@H](OC(N)=O)[C@@H](OC)/C=C\C=C(/C)C(=O)NC(=CC1=O)C2=O`, the mutagenic call was “active; positive” (Test System: Mouse lymphoma, Strain/Indicator: L5178Y (tk+/tk-), Metabolic Activation: None, Method: Suspension/plate) and “inactive; negative” (Test System: Mouse lymphoma, Strain/Indicator: L5178Y (tk+/tk-), Metabolic Activation: Rat, Liver, S-9, Aroclor 1254, Method: Suspension/plate).
As to `O=C(O)CCCc1c[nH]c2ccccc12`, the mutagenic call by setting is: (Test System: AMES SALMONELLA TYPHIMURIUM, Strain/Indicator: TA97A, Metabolic Activation: NONE, Method: STANDARD PLATE) “inactive; negative”; (Test System: AMES SALMONELLA TYPHIMURIUM, Strain/Indicator: TA97A, Metabolic Activation: RAT, LIVER, S-9, AROCLOR 1254, Method: STANDARD PLATE) “inactive; negative”; under setting [1], “inactive; negative”; under setting [2], “inactive; negative”; under setting [3], “inactive; negative”; under setting [4], “inactive; negative”. Besides, the mutagenic call is, setting by setting: (Test System: AMES SALMONELLA TYPHIMURIUM, Strain/Indicator: TA1535, Metabolic Activation: NONE, Method: STANDARD PLATE) “inactive; negative”; (Test System: AMES SALMONELLA TYPHIMURIUM, Strain/Indicator: TA1535, Metabolic Activation: RAT, LIVER, S-9, AROCLOR 1254, Method: STANDARD PLATE) “inactive; negative”; (Test System: AMES SALMONELLA TYPHIMURIUM, Strain/Indicator: TA1537, Metabolic Activation: NONE, Method: STANDARD PLATE) “inactive; negative”; (Test System: AMES SALMONELLA TYPHIMURIUM, Strain/Indicator: TA1537, Metabolic Activation: RAT, LIVER, S-9, AROCLOR 1254, Method: STANDARD PLATE) “inactive; negative”; (Test System: AMES SALMONELLA TYPHIMURIUM, Strain/Indicator: TA1538, Metabolic Activation: NONE, Method: STANDARD PLATE) “inactive; negative”; (Test System: AMES SALMONELLA TYPHIMURIUM, Strain/Indicator: TA1538, Metabolic Activation: RAT, LIVER, S-9, AROCLOR 1254, Method: STANDARD PLATE) “inactive; negative”.
Regarding `Nc1cccc2nc3ccccc3c(N)c12`, the mutagenic call under setting [5] was “inactive; negative”; the mutagenic call (Test System: AMES SALMONELLA TYPHIMURIUM, Strain/Indicator: TA1535, Metabolic Activation: RAT, LIVER, S-9, TETRACHLOROBIPHENYL, Method: PREINCUBATION) was “active; positive”; the mutagenic call under setting [6] was “active; positive”; the mutagenic call (Test System: AMES SALMONELLA TYPHIMURIUM, Strain/Indicator: TA1537, Metabolic Activation: RAT, LIVER, S-9, TETRACHLOROBIPHENYL, Method: PREINCUBATION) was “active; positive”; the mutagenic call (Test System: AMES SALMONELLA TYPHIMURIUM, Strain/Indicator: TA1538, Metabolic Activation: NONE, Method: PREINCUBATION) was “inactive; negative”; the mutagenic call (Test System: AMES SALMONELLA TYPHIMURIUM, Strain/Indicator: TA1538, Metabolic Activation: RAT, LIVER, S-9, TETRACHLOROBIPHENYL, Method: PREINCUBATION) is “active; positive”. Moreover, the mutagenic call was “active; positive” (Test System: AMES SALMONELLA TYPHIMURIUM, Strain/Indicator: TA1975, Metabolic Activation: RAT, LIVER, S-9, TETRACHLOROBIPHENYL, Method: PREINCUBATION); “active; positive” (Test System: AMES SALMONELLA TYPHIMURIUM, Strain/Indicator: TA1977, Metabolic Activation: NONE, Method: PREINCUBATION); “active; positive” (Test System: AMES SALMONELLA TYPHIMURIUM, Strain/Indicator: TA1977, Metabolic Activation: RAT, LIVER, S-9, TETRACHLOROBIPHENYL, Method: PREINCUBATION); “active; positive” (Test System: AMES SALMONELLA TYPHIMURIUM, Strain/Indicator: TA1978, Metabolic Activation: RAT, LIVER, S-9, TETRACHLOROBIPHENYL, Method: PREINCUBATION).
For `O=[N+]([O-])c1ccccc1SSC(F)=C(Cl)Cl`, the mutagenic call reads like this: (Test System: AMES SALMONELLA TYPHIMURIUM, Strain/Indicator: TA100(DNP6), Metabolic Activation: NONE, Method: PREINCUBATION) “active; positive”; (Test System: AMES SALMONELLA TYPHIMURIUM, Strain/Indicator: TA100(NR), Metabolic Activation: NONE, Method: PREINCUBATION) “active; positive”.
Take `CN(C)C(=N)N(C)C`: the mutagenic call reads like this: under setting [7], “inactive; negative”; (Test System: AMES SALMONELLA TYPHIMURIUM, Strain/Indicator: TA98, Metabolic Activation: RAT, LIVER, S-9, PCB, Method: PREINCUBATION) “inactive; negative”; under setting [8], “inactive; negative”; (Test System: AMES SALMONELLA TYPHIMURIUM, Strain/Indicator: TA100, Metabolic Activation: RAT, LIVER, S-9, PCB, Method: PREINCUBATION) “inactive; negative”.
With `CNCCN(Cc1ccc(OC)cc1)c1ccccn1`, the mutagenic call by setting is: (Test System: AMES SALMONELLA TYPHIMURIUM, Strain/Indicator: TA97, Metabolic Activation: NONE, Method: STANDARD PLATE) “inactive; negative”; (Test System: AMES SALMONELLA TYPHIMURIUM, Strain/Indicator: TA97, Metabolic Activation: RAT, LIVER, S-9, AROCLOR 1254, Method: STANDARD PLATE) “inactive; negative”; under setting [1], “inactive; negative”; under setting [2], “inactive; negative”; under setting [3], “inactive; negative”; under setting [4], “inactive; negative”. In addition, the mutagenic call is, setting by setting: (Test System: AMES SALMONELLA TYPHIMURIUM, Strain/Indicator: TA102, Metabolic Activation: NONE, Method: STANDARD PLATE) “inactive; negative”; (Test System: AMES SALMONELLA TYPHIMURIUM, Strain/Indicator: TA102, Metabolic Activation: RAT, LIVER, S-9, AROCLOR 1254, Method: STANDARD PLATE) “inactive; negative”.
In the case of `ClCc1c2ccccc2c(Cl)c2ccccc12`, the mutagenic call under setting [3] is “active; positive”.
Take `O=c1c2c(c3c(ccc4cc5c(ccc6ccccc65)[nH]c43)c1O)O2`: the mutagenic call was “active; positive” (Test System: AMES SALMONELLA TYPHIMURIUM, Strain/Indicator: TA98, Metabolic Activation: RAT, LIVER, AROCLOR 1254, NADPH GENERATING SYSTEM, Method: STANDARD PLATE); “active; positive” (Test System: AMES SALMONELLA TYPHIMURIUM, Strain/Indicator: TA100, Metabolic Activation: RAT, LIVER, AROCLOR 1254, NADPH GENERATING SYSTEM, Method: STANDARD PLATE); “active; positive” (Test System: CHINESE HAMSTER V-79, Strain/Indicator: V-79/8-AZAGUANINE, Method: STANDARD PLATE).
`CNC(=O)c1cccc(NCC(=O)NCCc2ccc(OC)c(OC)c2)c1`: the mutagenic call under setting [7] was “inactive; negative”; the mutagenic call (Test System: AMES SALMONELLA TYPHIMURIUM, Strain/Indicator: TA98, Metabolic Activation: S-9, Method: PREINCUBATION) was “inactive; negative”; the mutagenic call under setting [8] was “inactive; negative”; the mutagenic call (Test System: AMES SALMONELLA TYPHIMURIUM, Strain/Indicator: TA100, Metabolic Activation: S-9, Method: PREINCUBATION) is “inactive; negative”; the mutagenic call under setting [5] was “inactive; negative”; the mutagenic call (Test System: AMES SALMONELLA TYPHIMURIUM, Strain/Indicator: TA1535, Metabolic Activation: S-9, Method: PREINCUBATION) was “inactive; negative”. Also, the mutagenic call by setting is: under setting [6], “inactive; negative”; (Test System: AMES SALMONELLA TYPHIMURIUM, Strain/Indicator: TA1537, Metabolic Activation: S-9, Method: PREINCUBATION) “inactive; negative”; (Test System: E. COLI, Strain/Indicator: WP2 UVRA, Metabolic Activation: NONE, Method: PREINCUBATION) “inactive; negative”; (Test System: E. COLI, Strain/Indicator: WP2 UVRA, Metabolic Activation: S-9, Method: PREINCUBATION) “inactive; negative”.
